How the values were obtained:
rats [1] = test: Serum cholesterol lowering after intravenous injection in rats; type: in vivo, rat
Protocol: This was verified as follows. Male rats (250-300 g) were anesthetized by means of ether, whereafter 500 gl PBS, having dissolved therein 0.56 mg, 0.18 mg, 0.056 mg or 0 mg TG(20 Å)-chol (formula 20) or 0.56 mg tris-glu-chol (formula 21): [drawing 19] was injected into the vena penis. At the times indicated in FIG. 3, blood samples of 300 μl were taken by means of orbital puncture. The blood samples were centrifuged (5 min; 1500 g) and the serum was used for a cholesterol assay by means of the CHOD-PAP kit of Boehringer Mannheim. 24 Hours after injection the rat was bled. The blood was centrifuged whereafter the serum was pipeted. Then the serum was subjected to gradient density ultracentrifugation and the various lipoprotein fractions were isolated: HDL (1.21<d<1.05), LDL (1.050<d<1.019), IDL (1.019<d<1.006) and VLDL (d<1.006). Finally, the total cholesterol concentrations of these lipoprotein fractions were assayed by means of the CHOD-PAP kit.

rats [2] = test: Biliary secretion in catheterized rats after intravenous injection; type: in vivo, rat; settings: 0.56 mg i.v., FIG. 5
Protocol: Intravenous injection of TG(20 Å)C (0.56 mg, dissolved in phosphate buffered saline) in rats, provided with catheters in duodenum, bile-duct and heart vene, also enhances the biliary secretion of bile acids from the liver leaving the biliary flow and the biliary secretion of cholesterol unaltered. Apparently, the TG(20 Å)C-induced increase in the uptake of lipoprotein-derived cholesterol is efficiently coupled to bile-acid secretion in rats. This might have important implications for potential application of TG(20 Å)C as a hypocholesterolemic therapeutic. (See FIG. 5.)

rats [3] = test: In vivo behaviour of LDL charged with glycolipid after intravenous injection into rats; design: species or system rat
Source text: The so prepared compound TG(20 Å)-chol (formula 20): [drawing 22] can also be used to direct LDL to the hepatic parenchymal cell. To investigate this, isolated low-density lipoprotein was charged with TG(20 Å)-chol according to a procedure that is known per se and the in vivo behaviour of the particle was studied. […] This then leads to a stabilization of the LDL level in the bloodstream after a few minutes. Accumulation of TG(20 Å)-chol in LDL, then, changes the physiological rate of LDL. The complex is taken up by the liver via a galactose-specific route. […] Now it can be verified whether the complex is taken up by the parenchymal or by the Kupffer cell on the liver. […] This is an indication that charging with this compound leads to liver uptake via the asialoglycoprotein receptor in the parenchymal cell.

rats [4] = test: In vivo fate of lipoprotein (a) charged with glycolipid in rats; design: species or system rat
Source text: The so prepared TG(20 Å)-chol (formula 20): [drawing 24] can also be used to direct apo(a) to the hepatic parenchymal cell. High levels of lp(a) are correlated with the occurence of coronary and vascular diseases. To date, an adequate clinical therapy to alleviate the pathogenesis is not available. To investigate whether TG(20 Å)C can be used to stimulate the hepatic uptake and processing of lp(a) this, isolated lp(a) was charged with TG(20 Å)-chol according to a procedure that is known per se and the in vivo behaviour of the particle was studied. Lp(a) (50 μg) in PBS was incubated at 20° C. for 30 min with 0, 5, 15 and 50 μg TG(20 Å) (-chol). This charge led to a changed behaviour of the apo(a) after intravenous injection into rats. This is illustrated in FIG. 8. […] On account of the high […] of TG(20 Å)-chol, very rapidly an exchange of this compound occurs between lp(a) and other lipoproteins and lipid compartments. This then leads to a stabilization of the lp(a) level in the bloodstream after a few minutes.
^125 I-Lp(a) (50 μg) was mixed with 50 μg of TG(20 Å)C or TG(4 Å)C in 500 μl PBS. After 30 min at room temperature, the mixtures were injected into rats at a dose of 50 μg of apolipoprotein/kg body weight. Ten minutes after injection, parenchymal, endothelial and Kupffer cells were isolated from the liver and counted for radioactivity. Values are expressed as 10-3.% of the injected dose per mg of cellular protein and are means of 3 experiments ± s.e.m.

[5] = 125I-Lp(a) 50 μg + 50 μg glycolipid, rats, 10 min after injection, mean ± s.e.m., 3 experiments

SMILES: CC(C)CCC[C@@H](C)[C@H]1CC[C@H]2[C@@H]3CC=C4C[C@@H](OC(=O)CNC(=O)CCCCC(=O)NCC(=O)NC(COCOCCOCCOCCOCCO[C@@H]5O[C@H](CO)[C@H](O)[C@H](O)[C@H]5O)(COCOCCOCCOCCOCCO[C@@H]5O[C@H](CO)[C@H](O)[C@H](O)[C@H]5O)COCOCCOCCOCCOCCO[C@@H]5O[C@H](CO)[C@H](O)[C@H](O)[C@H]5O)CC[C@]4(C)[C@H]3CC[C@]12C [TG(20 Å)-chol, N,N-[tris-O-(3,6,9-trioxaundecanyl-β-D-galactopyranosyl)methoxymethyl]methyl-N^α -(1-(6-(5-cholesten-3β-yloxy)glycyl)adipyl)glycinamide]
- Cholesterol level 24 hours after single administration (rats [1]; 0.56 mg, 24 hours): has not returned to the control value
- LDL level (rats [1]; 24 h after injection): likewise lowered
- Concentrations of the other lipoproteins (rats [1]; 24 h after injection (IDL, VLDL)): not significantly affected
- Serum HDL level (rats [1]; 24 h after injection, FIG. 4): decreases dose-dependently and significantly
- Total serum cholesterol level (rats [1]; injection into vena penis, 0.056-0.56 mg, FIG. 3): decreases
- Increase in potency compared with tris-gal-chol (rats [1]; serum cholesterol lowering, comparison with ref 15): ≥ 25 factor
- Biliary flow (rats [2]): unaltered
- Biliary secretion of bile acids (rats [2]): enhances
- Biliary secretion of cholesterol (rats [2]): unaltered
- Effect of asialofetuin preinjection on uptake of charged LDL (rats [3]; 50 mg/kg asialofetuin 1 min before injection): significant inhibition of the uptake by the liver parenchymal cell
- Clearance from bloodstream and liver uptake of charged 125I-LDL (rats [3]; LDL 50 μg charged with 5, 15, 50 μg, i.v. rats, FIG. 6): cleared and incorporated into the liver much faster
- Liver cell type location of charged LDL taken up (rats [3]; rats, FIG. 7): largely located in the parenchymal cell
- Effect of N-acetyl-galactosamine preinjection on induced hepatic uptake of 125I-lp(a) (rats [4]; 150 mg N-acetyl-galactosamine, rat, data not shown): can be inhibited
- Contribution to hepatic uptake of Lp(a), EC (endothelial cells) (rats [4]; [5]): 8.3 ± 2%
- Contribution to hepatic uptake of Lp(a), KC (Kupffer cells) (rats [4]; [5]): 37.3 ± 9%
- Clearance from bloodstream and liver uptake of charged apo(a)/lp(a) particles (rats [4]; Lp(a) 50 μg charged with 5, 15, 50 μg, i.v. rats, FIG. 8): cleared and incorporated into the liver much faster

From patent US5885968A, “Triantennary cluster glycosides, their preparation and use” (Rijksuniversiteit te Leiden, priority 1992, dated 1999)
